Activity calls are given as the source filed them. No cut-off for these calls is given here.
Legend:
[1] = molecular target: T1, Lysine-specific demethylase 5A (Homo sapiens, UniProt P29375); assay: Inhibition of KDM5A (unknown origin) using substrate peptide/ascorbate/2-OG/ Fe(2) as substrate at 10 uM preincubated for 15 mins followed by addition of substrate peptide/ ascorbate/2-OG/ Fe(2) measured after 1 hr by AlphaLISA method
[2] = molecular target: T1, Lysine-specific demethylase 5A; assay: […] of KDM5A in human ZR-75-1 cells effect on H3K4me3 expression after 48 hrs by Western blot analysis; format: cell-based
[3] = molecular target: T1, Lysine-specific demethylase 5A; assay: Inhibition of KDM5A (unknown origin) using substrate peptide/ascorbate/2-OG/ Fe(2) as substrate preincubated for 15 mins followed by addition of substrate peptide/ ascorbate/2-OG/ Fe(2) measured after 1 hr by AlphaLISA method
[4] = molecular target: T2, Lysine-specific demethylase 3A (Homo sapiens, UniProt Q9Y4C1); assay: Inhibition of KDM3A (unknown origin) using substrate peptide/ascorbate/2-OG/ Fe(2) as substrate preincubated for 15 mins followed by addition of substrate peptide/ ascorbate/2-OG/ Fe(2) measured after 1 hr by AlphaLISA method
T2 sequence (Q9Y4C1 whole entry): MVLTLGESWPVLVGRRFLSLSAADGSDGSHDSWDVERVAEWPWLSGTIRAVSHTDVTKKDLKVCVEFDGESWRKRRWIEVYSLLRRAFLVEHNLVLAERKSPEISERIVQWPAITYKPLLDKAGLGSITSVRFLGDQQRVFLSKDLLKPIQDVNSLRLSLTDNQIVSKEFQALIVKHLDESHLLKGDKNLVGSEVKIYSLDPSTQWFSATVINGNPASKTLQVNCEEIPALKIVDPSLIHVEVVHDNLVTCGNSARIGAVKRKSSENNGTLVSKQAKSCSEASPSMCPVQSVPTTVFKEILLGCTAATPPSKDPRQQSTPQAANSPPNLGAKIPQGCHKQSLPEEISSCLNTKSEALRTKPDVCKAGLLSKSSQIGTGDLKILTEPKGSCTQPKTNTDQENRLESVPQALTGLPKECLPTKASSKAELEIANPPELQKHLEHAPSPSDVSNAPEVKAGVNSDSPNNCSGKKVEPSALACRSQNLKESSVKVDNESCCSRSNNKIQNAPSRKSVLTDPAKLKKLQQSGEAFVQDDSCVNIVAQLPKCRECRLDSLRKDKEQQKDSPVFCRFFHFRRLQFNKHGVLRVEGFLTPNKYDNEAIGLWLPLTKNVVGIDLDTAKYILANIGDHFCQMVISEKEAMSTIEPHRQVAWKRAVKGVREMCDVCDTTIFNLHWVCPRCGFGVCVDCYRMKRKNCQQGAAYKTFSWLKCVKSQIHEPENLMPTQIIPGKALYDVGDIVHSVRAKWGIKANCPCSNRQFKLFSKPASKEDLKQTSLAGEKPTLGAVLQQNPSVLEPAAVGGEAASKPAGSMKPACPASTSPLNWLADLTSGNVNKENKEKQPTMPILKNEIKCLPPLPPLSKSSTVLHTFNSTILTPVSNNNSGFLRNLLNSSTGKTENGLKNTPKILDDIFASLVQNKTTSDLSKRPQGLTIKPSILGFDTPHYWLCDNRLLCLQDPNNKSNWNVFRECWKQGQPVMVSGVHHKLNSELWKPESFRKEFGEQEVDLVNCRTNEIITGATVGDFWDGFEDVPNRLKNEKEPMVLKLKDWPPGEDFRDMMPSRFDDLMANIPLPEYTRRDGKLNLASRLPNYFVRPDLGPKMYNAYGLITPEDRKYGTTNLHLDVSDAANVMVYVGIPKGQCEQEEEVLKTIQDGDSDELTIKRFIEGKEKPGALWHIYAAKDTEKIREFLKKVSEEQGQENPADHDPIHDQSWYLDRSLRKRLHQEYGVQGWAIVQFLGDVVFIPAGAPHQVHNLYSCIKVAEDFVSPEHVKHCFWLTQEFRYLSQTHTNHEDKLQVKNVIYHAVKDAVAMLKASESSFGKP

[5] = molecular target: Lysine-specific demethylase 6B (Homo sapiens, UniProt O15054); assay: Inhibition of KDM6B (unknown origin) using substrate peptide/ascorbate/2-OG/ Fe(2) as substrate preincubated for 15 mins followed by addition of substrate peptide/ ascorbate/2-OG/ Fe(2) measured after 1 hr by AlphaLISA method
Sequence of Lysine-specific demethylase 6B (O15054 whole entry): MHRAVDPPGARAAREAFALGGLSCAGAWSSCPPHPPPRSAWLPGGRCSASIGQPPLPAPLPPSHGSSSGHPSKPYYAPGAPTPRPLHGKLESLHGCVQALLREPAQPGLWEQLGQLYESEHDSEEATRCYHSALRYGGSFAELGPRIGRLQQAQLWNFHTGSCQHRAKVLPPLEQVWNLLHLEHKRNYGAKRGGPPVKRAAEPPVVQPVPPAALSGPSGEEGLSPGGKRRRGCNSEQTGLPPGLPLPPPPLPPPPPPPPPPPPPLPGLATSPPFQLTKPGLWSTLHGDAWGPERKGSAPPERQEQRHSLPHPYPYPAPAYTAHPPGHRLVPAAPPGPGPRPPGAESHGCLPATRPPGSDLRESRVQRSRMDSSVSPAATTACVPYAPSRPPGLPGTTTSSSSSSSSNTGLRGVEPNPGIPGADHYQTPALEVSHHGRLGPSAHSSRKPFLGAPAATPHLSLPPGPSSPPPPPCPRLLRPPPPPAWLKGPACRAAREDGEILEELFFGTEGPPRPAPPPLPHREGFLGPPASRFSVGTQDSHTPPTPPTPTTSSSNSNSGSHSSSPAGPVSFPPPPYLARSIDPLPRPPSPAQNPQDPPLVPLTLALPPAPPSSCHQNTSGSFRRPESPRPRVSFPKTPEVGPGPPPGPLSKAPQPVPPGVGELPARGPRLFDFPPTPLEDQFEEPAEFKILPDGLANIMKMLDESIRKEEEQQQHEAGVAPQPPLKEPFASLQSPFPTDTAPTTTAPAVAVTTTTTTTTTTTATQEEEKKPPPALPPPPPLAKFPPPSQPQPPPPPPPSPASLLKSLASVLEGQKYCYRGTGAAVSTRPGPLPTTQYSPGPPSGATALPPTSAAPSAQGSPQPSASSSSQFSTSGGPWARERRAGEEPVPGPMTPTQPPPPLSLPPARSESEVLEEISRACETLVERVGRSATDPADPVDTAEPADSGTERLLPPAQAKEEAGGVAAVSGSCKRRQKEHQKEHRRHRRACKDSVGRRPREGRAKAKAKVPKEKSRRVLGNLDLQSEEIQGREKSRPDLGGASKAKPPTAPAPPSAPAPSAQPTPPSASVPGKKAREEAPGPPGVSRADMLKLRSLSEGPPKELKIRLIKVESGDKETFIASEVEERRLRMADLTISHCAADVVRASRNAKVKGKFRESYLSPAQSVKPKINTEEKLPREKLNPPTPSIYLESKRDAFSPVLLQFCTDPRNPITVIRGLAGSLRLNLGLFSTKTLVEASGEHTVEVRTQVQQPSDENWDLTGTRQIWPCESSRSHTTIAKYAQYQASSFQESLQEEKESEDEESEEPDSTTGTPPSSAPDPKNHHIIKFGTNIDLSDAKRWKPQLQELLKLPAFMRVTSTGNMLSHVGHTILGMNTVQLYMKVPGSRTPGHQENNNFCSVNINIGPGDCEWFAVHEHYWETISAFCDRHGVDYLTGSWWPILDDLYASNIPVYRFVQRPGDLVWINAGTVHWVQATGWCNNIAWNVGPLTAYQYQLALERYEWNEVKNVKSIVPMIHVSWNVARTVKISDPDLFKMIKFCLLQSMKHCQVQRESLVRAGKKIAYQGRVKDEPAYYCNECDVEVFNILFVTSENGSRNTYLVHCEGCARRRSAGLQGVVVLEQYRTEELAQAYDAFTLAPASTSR

[6] = molecular target: T3, Lysine-specific demethylase 4E (Homo sapiens, UniProt B2RXH2); assay: Inhibition of KDM4E (unknown origin) using substrate peptide/ascorbate/2-OG/ Fe(2) as substrate preincubated for 15 mins followed by addition of substrate peptide/ ascorbate/2-OG/ Fe(2) measured after 1 hr by AlphaLISA method
T3 sequence (B2RXH2 whole entry): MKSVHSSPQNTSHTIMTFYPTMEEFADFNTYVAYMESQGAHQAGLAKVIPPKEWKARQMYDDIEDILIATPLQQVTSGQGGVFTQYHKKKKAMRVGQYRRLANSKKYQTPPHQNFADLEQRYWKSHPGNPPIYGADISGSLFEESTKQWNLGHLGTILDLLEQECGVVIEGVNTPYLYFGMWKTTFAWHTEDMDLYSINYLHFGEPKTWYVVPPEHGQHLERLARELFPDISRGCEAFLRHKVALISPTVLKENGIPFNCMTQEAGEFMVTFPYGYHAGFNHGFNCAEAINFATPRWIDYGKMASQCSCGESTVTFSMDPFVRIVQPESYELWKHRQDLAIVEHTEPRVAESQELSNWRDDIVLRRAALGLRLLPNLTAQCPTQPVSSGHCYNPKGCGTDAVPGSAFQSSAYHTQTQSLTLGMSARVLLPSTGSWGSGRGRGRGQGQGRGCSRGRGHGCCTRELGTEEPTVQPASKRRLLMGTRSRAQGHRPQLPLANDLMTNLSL

[7] = molecular target: Probable JmjC domain-containing histone demethylation protein 2C (Homo sapiens, UniProt Q15652); assay: Inhibition of KDM3C (unknown origin) using substrate peptide/ascorbate/2-OG/ Fe(2) as substrate preincubated for 15 mins followed by addition of substrate peptide/ ascorbate/2-OG/ Fe(2) measured after 1 hr by AlphaLISA method
[8] = molecular target: Lysine-specific demethylase 5B (Homo sapiens, UniProt Q9UGL1); assay: Inhibition of KDM5B (unknown origin) using substrate peptide/ascorbate/2-OG/ Fe(2) as substrate preincubated for 15 mins followed by addition of substrate peptide/ ascorbate/2-OG/ Fe(2) measured after 1 hr by AlphaLISA method
Sequence of Lysine-specific demethylase 5B (Q9UGL1 whole entry): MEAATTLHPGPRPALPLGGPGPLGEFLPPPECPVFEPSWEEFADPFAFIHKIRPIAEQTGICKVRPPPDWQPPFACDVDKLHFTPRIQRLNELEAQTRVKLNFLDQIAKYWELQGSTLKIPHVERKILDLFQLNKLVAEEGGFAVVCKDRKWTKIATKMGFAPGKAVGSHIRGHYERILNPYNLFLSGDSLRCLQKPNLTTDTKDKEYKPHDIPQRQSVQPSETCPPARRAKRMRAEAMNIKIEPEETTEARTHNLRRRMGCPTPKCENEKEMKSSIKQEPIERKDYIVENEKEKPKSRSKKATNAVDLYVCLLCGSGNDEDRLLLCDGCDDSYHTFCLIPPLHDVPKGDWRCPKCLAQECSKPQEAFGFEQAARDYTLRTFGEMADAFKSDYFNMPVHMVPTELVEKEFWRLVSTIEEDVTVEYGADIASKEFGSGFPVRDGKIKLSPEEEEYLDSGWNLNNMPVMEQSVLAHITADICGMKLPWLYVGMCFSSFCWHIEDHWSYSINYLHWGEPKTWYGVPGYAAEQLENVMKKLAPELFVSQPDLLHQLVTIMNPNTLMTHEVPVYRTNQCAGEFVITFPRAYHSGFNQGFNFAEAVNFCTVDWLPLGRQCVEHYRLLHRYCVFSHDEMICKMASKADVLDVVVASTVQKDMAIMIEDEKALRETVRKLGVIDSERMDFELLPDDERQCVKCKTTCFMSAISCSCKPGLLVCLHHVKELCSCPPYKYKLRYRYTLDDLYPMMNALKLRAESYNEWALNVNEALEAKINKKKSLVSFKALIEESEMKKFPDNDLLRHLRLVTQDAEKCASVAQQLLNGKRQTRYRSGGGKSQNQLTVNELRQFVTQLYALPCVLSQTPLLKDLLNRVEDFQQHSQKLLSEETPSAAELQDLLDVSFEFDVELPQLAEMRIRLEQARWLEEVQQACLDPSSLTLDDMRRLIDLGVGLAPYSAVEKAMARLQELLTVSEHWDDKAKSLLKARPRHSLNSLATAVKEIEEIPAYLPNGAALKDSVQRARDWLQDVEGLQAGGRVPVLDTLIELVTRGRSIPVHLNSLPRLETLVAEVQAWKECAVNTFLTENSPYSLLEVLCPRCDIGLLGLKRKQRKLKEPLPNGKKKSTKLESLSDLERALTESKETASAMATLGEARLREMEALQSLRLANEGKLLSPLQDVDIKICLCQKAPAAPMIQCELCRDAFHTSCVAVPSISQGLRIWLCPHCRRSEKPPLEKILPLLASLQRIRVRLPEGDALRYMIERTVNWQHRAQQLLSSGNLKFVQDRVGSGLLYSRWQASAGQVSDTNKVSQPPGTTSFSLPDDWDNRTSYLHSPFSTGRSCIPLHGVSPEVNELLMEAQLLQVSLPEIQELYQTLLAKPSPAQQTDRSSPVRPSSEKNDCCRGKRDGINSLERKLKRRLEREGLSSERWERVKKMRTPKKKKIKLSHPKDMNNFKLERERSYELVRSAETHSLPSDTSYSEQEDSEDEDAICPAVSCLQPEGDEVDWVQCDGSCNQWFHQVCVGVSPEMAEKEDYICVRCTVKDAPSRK

T1 sequence (P29375 whole entry): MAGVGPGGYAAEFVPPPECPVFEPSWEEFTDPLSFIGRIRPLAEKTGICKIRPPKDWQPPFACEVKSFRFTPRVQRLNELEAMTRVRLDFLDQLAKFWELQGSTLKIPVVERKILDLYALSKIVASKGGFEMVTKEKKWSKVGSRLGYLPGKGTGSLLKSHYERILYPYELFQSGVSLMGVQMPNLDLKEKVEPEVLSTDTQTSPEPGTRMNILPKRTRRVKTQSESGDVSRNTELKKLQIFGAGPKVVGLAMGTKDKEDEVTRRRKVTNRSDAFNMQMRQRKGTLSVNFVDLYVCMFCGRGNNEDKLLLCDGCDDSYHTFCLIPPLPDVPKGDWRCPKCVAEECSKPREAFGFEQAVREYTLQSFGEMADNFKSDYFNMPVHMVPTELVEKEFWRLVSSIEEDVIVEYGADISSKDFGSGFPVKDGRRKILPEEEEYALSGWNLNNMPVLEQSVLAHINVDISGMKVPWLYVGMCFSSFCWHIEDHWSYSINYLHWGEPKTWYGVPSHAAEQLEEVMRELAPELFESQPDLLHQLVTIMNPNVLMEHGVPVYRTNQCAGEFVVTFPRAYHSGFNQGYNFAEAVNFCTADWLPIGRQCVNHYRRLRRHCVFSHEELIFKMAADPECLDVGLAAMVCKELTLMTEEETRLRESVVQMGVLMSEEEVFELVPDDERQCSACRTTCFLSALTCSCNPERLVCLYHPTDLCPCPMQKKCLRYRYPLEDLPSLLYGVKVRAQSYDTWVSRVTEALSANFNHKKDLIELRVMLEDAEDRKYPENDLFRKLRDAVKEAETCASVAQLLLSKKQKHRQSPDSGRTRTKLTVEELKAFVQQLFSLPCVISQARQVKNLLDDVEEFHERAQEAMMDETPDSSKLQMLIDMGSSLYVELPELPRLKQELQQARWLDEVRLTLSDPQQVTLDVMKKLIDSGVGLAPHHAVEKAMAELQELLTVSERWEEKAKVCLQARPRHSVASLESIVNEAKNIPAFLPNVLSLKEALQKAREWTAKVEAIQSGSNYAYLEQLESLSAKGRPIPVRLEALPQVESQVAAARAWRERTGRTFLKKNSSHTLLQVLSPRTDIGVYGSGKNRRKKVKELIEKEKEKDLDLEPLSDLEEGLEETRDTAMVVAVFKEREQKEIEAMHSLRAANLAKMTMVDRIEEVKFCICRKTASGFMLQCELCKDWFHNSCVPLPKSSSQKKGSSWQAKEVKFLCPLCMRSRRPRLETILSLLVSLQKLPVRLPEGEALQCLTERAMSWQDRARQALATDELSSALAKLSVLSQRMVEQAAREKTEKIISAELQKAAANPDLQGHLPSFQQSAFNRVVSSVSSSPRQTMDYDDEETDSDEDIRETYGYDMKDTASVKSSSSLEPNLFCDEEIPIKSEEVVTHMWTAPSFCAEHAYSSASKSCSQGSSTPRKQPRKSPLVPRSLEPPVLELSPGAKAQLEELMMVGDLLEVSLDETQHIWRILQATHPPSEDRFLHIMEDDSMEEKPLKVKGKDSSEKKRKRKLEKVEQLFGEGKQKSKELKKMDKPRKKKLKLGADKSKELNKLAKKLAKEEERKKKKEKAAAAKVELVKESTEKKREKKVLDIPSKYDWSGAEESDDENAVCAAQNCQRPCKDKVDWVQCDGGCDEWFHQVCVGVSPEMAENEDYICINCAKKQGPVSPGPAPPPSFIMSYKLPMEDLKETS

inhibition [1] [%] | IC50 [3] [µM] | Structure (SMILES) | other results
26 |  | NNc1nccc(-c2cccc(C(=O)O)c2)n1 | 
 |  | COc1ccc(Oc2ccnc(NN)n2)cc1 | Activity [2]: inactive
14 |  | N#Cc1ccc(Nc2nc(NN)ncc2[N+](=O)[O-])cc1 | 
 |  | NNc1nccc(C(F)(F)F)n1 | Activity [2]: inactive
3 |  | O=C(O)c1ccnc(N/N=C/c2ccco2)n1 | 
88 |  | O=C(O)c1ccnc(N/N=C/c2ccccc2O)n1 | 
44 |  | Cc1ccnc(N/N=C/c2ccccc2O)n1 | 
 | 7 | O=C(NNc1c2ccccc2nc2ccccc12)c1ccccn1 | 
 | 13 | O=C1c2ccccc2C(=O)c2c1ccc1c(=O)n(-c3ccc(Cl)cc3)[nH]c21 | 
8 |  | NNc1ncccn1 | 
 | 25 | O=c1c2ccccc2oc2c(O)ccc(O)c12 | 
 | 4.2 | O=C(COc1cc(O)c2c(=O)cc(-c3ccccc3)oc2c1)OCc1ccccc1 | 
32 |  | Oc1ccccc1/C=N/Nc1ncccn1 | 
19 |  | Oc1ccccc1/C=N/Nc1ncc(Cl)cn1 | 
0 |  | O=C(O)c1ccnc(N/N=C/c2ccccc2)n1 | 
 | 83 | CCN(C1=C(Cl)C(=O)N(c2cccc(C)c2C)C1=O)c1ccccc1 | 

inhibition [1] [%] | IC50 [3] [µM] | Structure (SMILES) | other results
-6 |  | Cc1ccnc(NN)n1 | Activity [2]: inactive
 |  | NNc1nccc(N2CCOCC2)n1 | Activity [2]: inactive
 |  | NNc1ncc2ccccc2n1 | Activity [2]: inactive
42 |  | Oc1ccccc1/C=N/Nc1nccc(N2CCOCC2)n1 | 
 | 25 | c1ccc(Cc2nnc3sc(-c4ccccn4)nn23)cc1 | 
 |  | NNc1ncc(Cl)cn1 | Activity [2]: inactive
 |  | Oc1ccccc1/C=N/Nc1ncc(F)cn1 | Activity [2]: inactive
 |  | NNc1nccc(Oc2ccc(F)cc2)n1 | Activity [2]: inactive
0 |  | NNc1ncc(F)c(N2CCOCC2)n1 | 
58 | 2.3 | Oc1ccccc1/C=N/Nc1ncc(F)c(N2CCOCC2)n1 | 
 | 64 | CNc1ccccc(C(=O)/C=C/c2cccc(Oc3ccccc3)c2)c1=O | 
10 |  | NNc1ncc(F)cn1 | 
 | 5 | Cc1ccc(C(=O)c2coc3c2C(=O)C(=O)C(Br)=C3)cc1 | 
99 | 0.22 | NNc1nccc(C(=O)O)n1 | IC50 [4]: 43 µM; IC50 [5]: > 100 µM; IC50 [6]: 13 µM; IC50 [7]: 1.9 µM; IC50 [8]: > 100 µM
 |  | NNc1nccc(Oc2ccccc2)n1 | Activity [2]: inactive

Structure (SMILES) | inhibition [1] [%] | IC50 [3] [µM] | other results
NNC(=O)c1ccc(O)cc1 |  | 13 | 
